Data reported in patent US20250367171A1, “THERAPEUTIC OR PROPHYLACTIC AGENT FOR PERIPHERAL NEUROPATHIES” (Toray Industries, Inc., priority 2017, published 2025).

Key:
[1] = system: rat experimental autoimmune neuritis (EAN) model; experiment: Rat experimental autoimmune neuritis (EAN) model: clinical scores, body weight, histopathology; assay type: in vivo
Protocol: A method of preparing EAN model rats is as described below. Peripheral myelin protein P2 peptide 57-81 (synthesized at Toray Research Center, Inc.) was dissolved in physiological saline (Otsuka Pharmaceutical Factory, Inc.) to prepare a 2 mg/mL solution. The solution and 2 mg/mL complete Freund's adjuvant (Difco Laboratories) containing killed Mycobacterium tuberculosis H37Ra were mixed in equal amounts, thereby preparing an emulsion which was a peptide solution for administration. The peptide solution for administration (200 μL) was administered subcutaneously to the base of the tail of each Lewis rat (6 to 7 weeks old, male; CHARLES RIVER LABORATORIES JAPAN, INC.) under anesthesia, thereby preparing the EAN model. The day of administration of the peptide was designated as day 0 after induction of pathological conditions.
Clinical scores were evaluated as follows: 0=no symptom, 1=limp tail or hind limb weakness, 2=limp tail and hind limb weakness, 3=partial hind limb paralysis, 4=complete hind limb paralysis, 5=moribund state or death. Weighing was also performed.
Compound 1 (20 mg/kg) was dissolved in distilled water (Otsuka Pharmaceutical Factory, Inc.) and then the solution was orally administered to the EAN model twice a day (administration was started on day 10 after induction of pathological conditions). As a control, distilled water was orally administered to the EAN model. Groups were composed of 2 groups: a solvent administration group (vehicle group); and a compound 1 administration group.
For histopathological evaluation, on day 17 after induction of pathological conditions, the sciatic nerve and the tibial nerve were isolated, and then immersed in a 10% formalin neutral buffer solution. Specimens were sliced and then subjected to hematoxylin-eogin staining, Kliiver-Barrera staining (double staining of Luxol Fast Blue staining and Nissl staining) and immunostaining (IbaI, CD3, NFP and MBP). Specimens were observed under an optical microscope, and then the presence or the absence of T cell and macrophage infiltration, and degeneration of myelin sheaths and axons were evaluated.

[2] = system: fetal rat dorsal root ganglion-derived established neuronal cell line ND15; experiment: Repair effect on cisplatin-induced cell damage (cell viability), post-treatment; assay type: cell-based; details: ND15 cells, 24 hours cisplatin, then 2 hours post-treatment with compound 1 at 0.5, 5 or 50 μM
Protocol: (§1) A fetal rat dorsal root ganglion-derived established neuronal cell line ND15 was cultured in 10% FBS-containing DMEM. On the next day, the cells were cultured in 10% FBS-containing DMEM containing EC23 (10 μM, Reinner) for 8 days, for differentiation into neurons.
(§2) For measurement of cell viability, the medium was exchanged with DMEM/F12 medium containing alamarBlue (Invitrogen), followed by 2 hours of culture, and then the absorbance at wavelength of 570 nm and the absorbance at wavelength of 595 nm were measured. Cell viability was calculated using the ratio of the absorbance at wavelength of 570 nm to the absorbance at wavelength of 595 nm and the untreated group designated as 100%.
In a manner similar to Example 1, cell damage was induced to a fetal rat dorsal root ganglion-derived established neuronal cell line ND15 by the use of cisplatin, and then the cell viability was measured. After 24 hours of treatment with cisplatin, compound 1 was contained in a medium for 2 hours of treatment (final concentration of 0.5, 5 or 50 μM). Groups were composed of 6 groups: an untreated group; a 50 μM compound 1 treatment group; a cisplatin treatment group; a cisplatin and 0.5 μM compound 1 treatment group; a cisplatin and 5 μM compound 1 treatment group; and a cisplatin and 50 μM compound 1 treatment group.

[3] = system: fetal rat dorsal root ganglion-derived established neuronal cell line ND15; experiment: Protective effect on cisplatin-induced cell damage (alamarBlue cell viability), simultaneous treatment; assay type: cell-based; details: ND15 cells, cisplatin 50 μM 4 hours, simultaneous treatment with compound 1 at 0.5, 5 or 50 μM
Protocol: as §1
The medium was exchanged with DMEM/F12 medium containing cisplatin (final concentration of 50 μM) followed by 4 hours of culture, thereby inducing cell injury. Compound 1 was contained in the medium (final concentration of 0.5, 5 or 50 μM) for treatment, in a manner similar to that for cisplatin. Groups were composed of 6 groups: an untreated group, a 50 μM compound 1 treatment group (the group treated with 50 μM compound 1), a cisplatin treatment group, a cisplatin and 0.5 μM compound 1 treatment group (the group treated with cisplatin and 0.5 μM compound 1), a cisplatin and 5 μM compound 1 treatment group, and a cisplatin and 50 μM compound 1 treatment group.
as §2

[4] = 20 mg/kg oral twice a day, day 17, n = 3

CN(C)C1CCN(C(=O)C[C@H](O)c2nccn2C)CC1 [Compound 1, (S)-1-(4-(dimethylamino)piperidin-1-yl)-3-hydroxy-3-(1-methyl-1H-imidazol-2-yl)propan-1-one]
body weight loss ([1]; 20 mg/kg oral twice a day from day 10 after induction): no body weight loss was induced
clinical scores ([1]; 20 mg/kg oral twice a day from day 10 after induction, vs vehicle group): Increases in clinical scores were suppressed
number of animals with T cell infiltration, sciatic nerve [1, 4]: 1/3
number of animals with T cell infiltration, tibial nerve [1, 4]: 0/3
number of animals with axonal degeneration, sciatic nerve [1, 4]: 0/3
number of animals with axonal degeneration, tibial nerve [1, 4]: 0/3
number of animals with macrophage infiltration, sciatic nerve [1, 4]: 1/3
number of animals with macrophage infiltration, tibial nerve [1, 4]: 0/3
number of animals with myelin sheath degeneration, sciatic nerve [1, 4]: 0/3
number of animals with myelin sheath degeneration, tibial nerve [1, 4]: 0/3
cell viability (decrease caused by cisplatin) [2]: suppressed decrease
cell viability (decrease caused by cisplatin) [3]: suppressed decrease
